Experimental findings from ChEMBL document CHEMBL1201862, “PubChem BioAssay data set” (2004) are described below.

Some test systems named below: A498; HCT-116; HL-60; HOP-92; HT-29; IGROV-1; LOX IMVI; M14; NCI/ADR-RES; OVCAR-3; OVCAR-4; OVCAR-5; RXF 393; SF-268; SF-539; SN12C; SNB-75; U-251; UACC-62; HOP-18.
What all share (test): DTP human tumour cell line panel, 48 h

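In this assay, cells in 96-well plates receive the compound at five concentrations for 48 hours. Endpoints are linearly interpolated between the surrounding concentrations. GI50 = concentration required for 50% inhibition of growth.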 Activity calls are given as the source filed them. No stated cut-off is given here; in the data, active = GI50 up to about 1.1 µM and inactive = higher.

Regarding `CCOC(=O)C1(Cc2ccccc2)C=CN(C(=O)c2ccccc2)C=C1`, the GI50 with A498 is 22.9 µM (inactive); in the test with HCT-116, 29.8 µM (inactive); with HL-60, 16.6 µM (inactive); in the test with HOP-92, 23.4 µM (inactive); in the test on HT-29, 34.2 µM (inactive); with IGROV-1, 61.5 µM (inactive). In addition, the GI50 in the test on LOX IMVI is 34.4 µM (inactive); in the test with M14, 35.5 µM (inactive); in the test with NCI/ADR-RES, 36.6 µM (inactive); with OVCAR-3, 41.3 µM (inactive); in the test with OVCAR-4, 42.8 µM (inactive); with OVCAR-5, > 100 µM (inactive). The GI50 in the test with RXF 393 was 27.5 µM (inactive); in the test on SF-268 it was 47.4 µM (inactive); in the test on SF-539, 42.9 µM (inactive); in the test with SN12C, 29.6 µM (inactive); in the test on SNB-75, 17.8 µM (inactive); with U-251, 29.2 µM (inactive). In addition, in the test with UACC-62, the GI50 was 20.2 µM (inactive).
Take `COc1cc(Cl)cc(O)c(=O)c1OC`: the GI50 with A498 is 57.1 µM (inactive); in the test on HCT-116, 35.8 µM (inactive); with HL-60, 2.15 µM (inactive); in the test on HOP-18 it was 71.6 µM (inactive); in the test on HT-29, 64.3 µM (inactive); in the test on LOX IMVI it was 26.1 µM (inactive). In addition, the GI50 in the test with M14 was 41.8 µM (inactive); with OVCAR-3, 20.1 µM (inactive); in the test with OVCAR-4 it was 25.7 µM (inactive); in the test on OVCAR-5 it was > 92.5 µM (inactive); in the test with RXF 393 it was 26.9 µM (inactive); in the test on SF-268, 25.3 µM (inactive). Moreover, the GI50 is 44.5 µM (inactive) in the test on SF-539; 46 µM (inactive) with SN12C; 59.2 µM (inactive) in the test on SNB-75; 40.1 µM (inactive) with U-251; 24.4 µM (inactive) with UACC-62.
Take `CSc1ncc2c(n1)-c1ccccc1OC2NC1CC1` (stereo not drawn): the GI50 with A498 was 13.7 µM (inactive); in the test with HCT-116, 64.1 µM (inactive); in the test on HL-60, 30.2 µM (inactive); in the test on HOP-92, 43.9 µM (inactive); in the test with HT-29, > 100 µM (inactive); with IGROV-1, 49 µM (inactive). For the same compound, the GI50 was 92 µM (inactive) with LOX IMVI; > 100 µM (inactive) in the test on M14; 48.1 µM (inactive) with NCI/ADR-RES; 57.5 µM (inactive) in the test on OVCAR-3; 30.6 µM (inactive) in the test with OVCAR-4; > 100 µM (inactive) with OVCAR-5. The GI50 in the test with RXF 393 was > 100 µM (inactive); in the test on SF-268 it was 92.7 µM (inactive); in the test on SF-539, > 100 µM (inactive); in the test with SN12C it was 63.5 µM (inactive); in the test with SNB-75, 59 µM (inactive); with U-251, 76.2 µM (inactive). Besides, the GI50 in the test on UACC-62 was 25.8 µM (inactive).
For the compound `CC(=O)O[C@H]1CC[C@@]2(C)C(=CC[C@H]3[C@@H]4C[C@H](N5CCN(C)CC5)[C@H](OC(C)=O)[C@@]4(C)CC[C@@H]32)C1`, the GI50 is 20.9 µM (inactive) in the test on A498; 12.9 µM (inactive) in the test on HCT-116; 2.44 µM (inactive) in the test on HL-60; 25.4 µM (inactive) in the test with HOP-92; 3.6 µM (inactive) in the test with HT-29; 19 µM (inactive) with IGROV-1. Further, the GI50 with LOX IMVI is 3.03 µM (inactive); in the test on M14, 3.27 µM (inactive); with NCI/ADR-RES, 19.6 µM (inactive); with OVCAR-3, 8.47 µM (inactive); in the test with OVCAR-4, 17.6 µM (inactive); in the test with OVCAR-5 it was 26.1 µM (inactive). For the same compound, the GI50 in the test on RXF 393 is 19.1 µM (inactive); in the test with SF-268 it was 20 µM (inactive); in the test on SF-539, 4.26 µM (inactive); in the test with SN12C it was 24 µM (inactive); in the test with SNB-75, 24.4 µM (inactive); with U-251, 19.7 µM (inactive). In addition, the GI50 with UACC-62 is 11.7 µM (inactive).
On to `Cc1ccc(NCC(=O)N2CC(=O)Nc3ccccc32)cc1`, for which the GI50 in the test on HCT-116, with HL-60, with HOP-18, in the test with HOP-92, in the test on HT-29 and in the test on LOX IMVI was > 100 µM (inactive) each time. Further, the GI50 with M14, in the test on OVCAR-3, with OVCAR-4, in the test with OVCAR-5, in the test with RXF 393 and with SF-268 was > 100 µM (inactive) in each case. In addition, the GI50 in the test on SF-539, in the test on SN12C, with SNB-75, in the test with U-251 and in the test with UACC-62 was > 100 µM (inactive) throughout.
`NCCCCCS(=O)(=O)O`: the GI50 in the test with A498, with HCT-116, in the test with HL-60, in the test on HOP-18, in the test with HT-29 and in the test on IGROV-1 was > 100 µM (inactive) each time. Further, the GI50 in the test on LOX IMVI, in the test on M14, in the test with OVCAR-3, in the test with OVCAR-4, in the test with OVCAR-5 and in the test with RXF 393 was > 100 µM (inactive) throughout. Besides, the GI50 in the test with SF-268, in the test on SF-539, in the test with SN12C, in the test on SNB-75, with U-251 and in the test with UACC-62 was > 100 µM (inactive) throughout.
With `COc1cccc(N2C(=O)C3c4[nH]c5ccccc5c4C4c5ccccc5CCC4C3C2=O)c1` (stereo not drawn), the GI50 in the test on A498 is 2.77 µM (inactive); in the test on HCT-116, 4.34 µM (inactive); with HL-60 it was > 10 µM (inactive); with HOP-92, 6.15 µM (inactive); with HT-29, 9.93 µM (inactive); with IGROV-1, > 7.98 µM (inactive). In addition, the GI50 with LOX IMVI was > 10 µM (inactive); in the test on M14, 4.92 µM (inactive); in the test with NCI/ADR-RES, 4.76 µM (inactive); in the test on OVCAR-3, 5.5 µM (inactive); in the test on OVCAR-4, 2.75 µM (inactive); in the test on OVCAR-5, > 10 µM (inactive). The GI50 in the test with RXF 393 was > 6.62 µM (inactive); in the test on SF-268 it was 4.16 µM (inactive); with SF-539 it was 2.5 µM (inactive); in the test with SN12C it was > 6.03 µM (inactive); in the test with SNB-75, 2.7 µM (inactive); with U-251, 3.82 µM (inactive). In addition, the GI50 with UACC-62 is > 10 µM (inactive).
As for `COc1ccc(-c2nc(SCC(=O)NNC(=S)Nc3ccccc3)[nH]c2-c2ccc(OC)cc2)cc1`, the GI50 with A498 was 22.9 µM (inactive); in the test on HCT-116, 25.8 µM (inactive); with HL-60, 4.63 µM (inactive); in the test on HOP-92, 20.8 µM (inactive); in the test with HT-29, 35.2 µM (inactive); with IGROV-1, 33.8 µM (inactive). For the same compound, the GI50 is 19.6 µM (inactive) in the test with LOX IMVI; 17.7 µM (inactive) with M14; 74.5 µM (inactive) in the test with NCI/ADR-RES; 14.3 µM (inactive) in the test with OVCAR-3; 33.5 µM (inactive) with OVCAR-4; 23.7 µM (inactive) with OVCAR-5. Also, the GI50 is 16.9 µM (inactive) in the test on RXF 393; 25.9 µM (inactive) in the test with SF-268; 15.7 µM (inactive) with SF-539; 21.8 µM (inactive) in the test with SN12C; 24.9 µM (inactive) in the test with SNB-75; 17.5 µM (inactive) in the test with U-251. For the same compound, the GI50 in the test on UACC-62 is 16.6 µM (inactive).
`Cc1cn(C2CC(O)C(COC(N)=O)O2)c(=O)[nH]c1=O` (stereo not drawn): the GI50 in the test with A498, in the test with HCT-116, with HL-60, in the test with HOP-92, in the test with HT-29 and with IGROV-1 was > 100 µM (inactive) each time. The GI50 in the test with LOX IMVI, with M14, in the test on NCI/ADR-RES, in the test with OVCAR-3, with OVCAR-4 and in the test with OVCAR-5 was > 100 µM (inactive) in each case. Moreover, the GI50 in the test on RXF 393 was > 100 µM (inactive); with SF-268, > 100 µM (inactive); with SF-539, > 100 µM (inactive); with SN12C it was > 100 µM (inactive); in the test with SNB-75, 71.1 µM (inactive); with U-251 it was > 100 µM (inactive). In addition, in the test on UACC-62, the GI50 is > 100 µM (inactive).
As for `C1=CC2C(C3CN(c4ccccc4)N=C13)C1C3C4C=CC21C=CC43` (stereo not drawn), the GI50 was > 100 µM (inactive) with A498; > 100 µM (inactive) in the test on HCT-116; > 100 µM (inactive) in the test on HL-60; 80 µM (inactive) with HOP-92; > 100 µM (inactive) with HT-29; > 100 µM (inactive) in the test with IGROV-1. Further, the GI50 with LOX IMVI is > 100 µM (inactive); in the test with M14, > 100 µM (inactive); with NCI/ADR-RES, > 100 µM (inactive); with OVCAR-3 it was > 100 µM (inactive); with OVCAR-4, > 78.5 µM (inactive); in the test with OVCAR-5, > 100 µM (inactive). In addition, the GI50 in the test on RXF 393 was 0.172 µM (active); with SF-268, > 100 µM (inactive); in the test with SF-539, > 100 µM (inactive); with SN12C, > 100 µM (inactive); with SNB-75, > 65.3 µM (inactive); with U-251 it was > 100 µM (inactive). Besides, the GI50 in the test on UACC-62 was > 100 µM (inactive).
Regarding `CCCCCCCCCCCC[N+]12CC[N+](CCN)(CC1)CC2`, the GI50 with HCT-116 was > 100 µM (inactive); in the test with HL-60, 27.7 µM (inactive); in the test on HOP-18, 75.3 µM (inactive); in the test with HOP-92, 29.4 µM (inactive); in the test on HT-29, 67.8 µM (inactive); in the test with IGROV-1, 10.8 µM (inactive). For the same compound, the GI50 is 37.8 µM (inactive) in the test on LOX IMVI; > 100 µM (inactive) with M14; > 100 µM (inactive) in the test with OVCAR-3; > 100 µM (inactive) in the test with OVCAR-4; 17.2 µM (inactive) with OVCAR-5; 5.62 µM (inactive) in the test with RXF 393. Further, the GI50 is 37.2 µM (inactive) in the test on SF-268; 89.7 µM (inactive) in the test with SF-539; 76.7 µM (inactive) in the test on SN12C; 28.2 µM (inactive) with SNB-75; 34.5 µM (inactive) in the test on U-251; 56.9 µM (inactive) with UACC-62.
